# Assay results taken from patent US11560400B2, “Salts of diphosphate phosphoramidate of nucleosides as anticancer compounds” (NuCana plc, priority 2017, dated 2023).
# Entries after “also recorded” stand apart in the source; their conditions may differ. Where two headings read alike, the source gives them in different places.
# Tests used:
# [1] = test system: CCRF-CEM; test: CellTiterGlo cell viability assay, CCRF-CEM; format: cell-based; settings: 72 h; for EC50: read-out: Ab EC50
# How it was run: (§1)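 Cells are exposed to compounds for 72 h at final concentrations of 198 μM down to 19.8 nM in 0.5% DMSO, then viability is quantified with CellTiterGlo.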
# [2] = test system: KG1a cells; test: In vitro cytotoxicity, Annexin V/propidium iodide assay in KG1a cells; format: cell-based; settings: for change of potency (mean LD50) under hypoxic versus normoxic conditions: 5% oxygen
# Method: The acute myeloid leukaemia (AML) KG1a cell line was maintained in RPMI medium (Invitrogen, Paisley, UK) supplemented with 100 units/mL penicillin, 100 μg/mL streptomycin and 20% foetal calf serum. Cells were subsequently aliquoted (10^5 cells/100 μL) into 96-well plates and were incubated at 37° C. in a humidified normoxic (20% oxygen) or hypoxic (1% or 5% oxygen) atmosphere for 48 h in the presence of clofarabine, or clofarabine diphosphate phosphoramidates of the invention (1×10^−10M-1×10^−6M). In addition, control cultures were carried out to which no drug was added. Cells were subsequently harvested by centrifugation and were analysed by flow cytometry using the Annexin V assay.
# Cultured cells were harvested by centrifugation and then resuspended in 195 μL of calcium-rich buffer. Subsequently, 5 μL of Annexin V (Caltag Medsystems, Botolph Claydon, UK) was added to the cell suspension and cells were incubated in the dark for 10 mins prior to washing. Cells were finally resuspended in 190 μL of calcium-rich buffer together with 10 μL of propidium iodide. Apoptosis was assessed by dual-colour immunofluorescent flow cytometry as described previously. Subsequently LD50 values (the dose required to kill 50% of the cells in a culture) were calculated for each nucleoside analogue and diphosphate phosphoramidate.
# The data obtained in these experiments were evaluated using one-way ANOVA. All data was confirmed as Gaussian or a Gaussian approximation using the omnibus K2 test. LD50 values were calculated from the non-linear regression and line of best-fit analysis of the sigmoidal dose-response curves. All statistical analyses were performed using Graphpad Prism 6.0 software (Graphpad Software Inc., San Diego, Calif.).
# The in vitro drug sensitivity of KG1a cells was assessed using the Annexin V/propidium iodide assay.
# [3] = test system: KG-1; test: CellTiterGlo cell viability assay, KG-1; format: cell-based; settings: Homo sapiens, KG-1, 72 h
# How it was run: as §1
# [4] = test system: K562; test: CellTiterGlo cell viability assay, K562; format: cell-based; settings: for EC50: read-out: Ab EC50
# How it was run: as §1
# [5] = test system: RPMI-8226; test: CellTiterGlo cell viability assay, RPMI-8226; format: cell-based, Human; settings: Homo sapiens, RPMI-8226, 72 h; for EC50: read-out: Ab EC50
# How it was run: as §1
# [6] = test system: HL-60; test: CellTiterGlo cell viability assay, HL-60; format: cell-based; settings: HL-60, 72 h; for EC50: read-out: Ab EC50
# How it was run: as §1
# [7] = test system: MOLT-4; test: CellTiterGlo cell viability assay, MOLT-4; format: cell-based; settings: MOLT-4, 72 h; for EC50: read-out: Ab EC50
# How it was run: as §1
# [8] = test system: RL; test: CellTiterGlo cell viability assay, RL; format: cell-based; settings: Homo sapiens, 72 h; for EC50: read-out: Ab EC50
# How it was run: as §1
# [9] = test system: KG1a LSCs and bulk tumour cells; test: γH2A.X phosphorylation assay (DNA damage) in purified LSCs and bulk tumour cells; format: cell-based; settings: 2-hour exposure, hypoxic conditions (5% O2), in words
# Method: KG1a cells were grown under hypoxic conditions for 7 days in order to generate 10^7 cells and increase the percentage of cells expressing an LSC phenotype. Subsequently, Lin^−/CD34^+/CD38^−/CD123^+ LSCs and Lin^−/CD34^+/CD38^+/CD123^+ ‘bulk’ tumour cells were purified by high speed cell sorting using a FACS Melody cell sorter (Becton Dickenson) and were placed back into hypoxic cell culture conditions prior to the addition of clofarabine or clofarabine diphosphate phosphoramidates.
# Phosphorylation of the histone variant γH2A.X occurs as a rapid response to double strand DNA breaks. The γH2A.X Phosphorylation Assay Kit (Flow cytometry) is a cell-based assay formatted for flow cytometric detection of levels of phosphorylated Histone γH2A.X (Merck, UK). LSC and ‘bulk tumour’ cells were cultured in 96-well plates in the presence of clofarabine or clofarabine diphosphate phosphoramidates. After 2 h of exposure to drug, the cells were harvested by centrifugation and then fixed and permeabilised in preparation for staining and detection. Histone γH2A.X phosphorylated at serine 139 is detected by the addition of the anti-phospho-Histone γH2A.X conjugated to APC. Cells were then run on a flow cytometer to quantitate the number of cells staining positive for phosphorylated Histone γH2A.X.
# [10] = test system: HT29; test: CellTiterGlo cell viability assay, HT29; format: cell-based; settings: Homo sapiens, HT-29, 72 h, HT29, 72 h; for EC50: read-out: Ab EC50
# How it was run: as §1
# [11] = Homo sapiens, percentage inhibition at the highest concentration tested, read-out: Top Inh
# [12] = percentage inhibition at the highest concentration tested, read-out: Top Inhibit
# [13] = percentage inhibition at the highest concentration tested, read-out: Top Inh
compound,measurement,setting,value
"Nc1nc(Cl)nc2c1ncn2[C@@H]1O[C@H](CO)[C@@H](O)[C@@H]1F [Clofarabine, reference compound]",EC50,[1]; Table 4 classes,< 200 nM
same,EC50,"[1]; Homo sapiens, Table 3 classes",< 200 nM
same,inhibition at 198 µM,[1]; [11],98.7%
same,change of potency (mean LD50) under hypoxic versus normoxic conditions,[2]; in words,significant loss in potency under hypoxic conditions; also recorded: significant reduction in potency
same,change of potency (mean LD50) under hypoxic versus normoxic conditions,"[2]; in words, listed as clofarabine",significant increase in mean LD50 under hypoxic conditions; also recorded: significant reduction in potency
same,Hypoxia Mean LD50,"[2]; 48 h, hypoxic (5% O2)",53.1 nM
same,Mean LD50 (Normoxia Mean LD50),"[2]; 48 h, normoxic (20% oxygen)",16.9 nM
same,mean LD50 under hypoxic conditions,[2]; hypoxic (5% oxygen),53.1 nM
same,potency in KG1a cells (dose-response curves),[2]; in words,highest potency
same,mean LD50,[2]; normoxic,16.9 nM
same,Ratio Normoxia/Hypoxia,[2]; ratio of mean LD50 values,31.8
same,EC50,"[3]; Table 4 classes, read-out: Ab EC50",< 200 nM
same,inhibition at 198 µM,[3]; [12],93%
same,inhibition at 198 µM,"[4]; Homo sapiens, K562, 72 h, percentage inhibition at the highest concentration tested, read-out: Top Inh",23%
same,EC50,"[4]; Homo sapiens, K562, 72 h, Table 3 classes",> 10000 nM
same,EC50,"[4]; K 562, 72 h, Table 4 classes",> 10000 nM
same,EC50,[5]; Table 3 classes,5000 to 10000 nM
same,EC50,[5]; Table 4 classes,> 10000 nM
same,inhibition at 198 µM,[5]; [13],89%
same,EC50,[6]; Table 4 classes,< 200 nM
same,EC50,"[6]; Homo sapiens, Table 3 classes",< 200 nM
same,inhibition at 198 µM,[6]; [11],97%
same,inhibition at 198 µM,[7]; [11],84.1%
same,EC50,"[7]; Homo sapiens, Table 3 classes",< 200 nM
same,EC50,[7]; Table 4 classes,< 200 nM
same,EC50,[8]; Table 3 classes,200 to 2000 nM
same,EC50,[8]; Table 4 classes,200 to 1000 nM
same,inhibition at 198 µM,[8]; [13],77%
same,DNA damage in LSCs compared with bulk tumour cells (γH2A.X phosphorylation),[9],level of DNA damage in the LSCs was significantly lower than the bulk tumour cells
same,EC50,[10]; Table 3 classes,200 to 2000 nM
same,EC50,[10]; Table 4 classes,200 to 1000 nM
same,inhibition at 198 µM,[10]; [12],64%
